This note sets out measurements from patent US7049317B2, “CCR-3 receptor antagonists” (Syntex (U.S.A.) LLC, priority 2001, dated 2006).

One data set has as its target T1, CCR-3 receptor (Homo sapiens, UniProt P51677).
T1 construct: expressed in transfected cells; host or cells: L1.2 cells (murine pre-B lymphoma line)
T1 sequence (P51677 1-355): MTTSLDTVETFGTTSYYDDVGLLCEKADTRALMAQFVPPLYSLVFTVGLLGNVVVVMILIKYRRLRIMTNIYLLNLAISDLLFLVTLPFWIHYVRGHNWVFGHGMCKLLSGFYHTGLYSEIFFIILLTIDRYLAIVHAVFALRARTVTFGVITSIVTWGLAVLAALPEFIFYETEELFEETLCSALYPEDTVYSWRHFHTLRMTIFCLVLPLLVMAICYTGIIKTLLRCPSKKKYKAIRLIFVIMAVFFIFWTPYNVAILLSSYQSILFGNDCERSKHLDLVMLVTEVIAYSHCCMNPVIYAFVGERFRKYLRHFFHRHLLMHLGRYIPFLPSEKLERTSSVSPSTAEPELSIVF
The data set is described as follows: CCR-3 Receptor Binding Assay, inhibition of 125I eotaxin binding to CCR-3 L1.2 transfectant cells. Conditions: 1 hour at room temperature. On the procedure: The CCR-3 antagonistic activity of the compounds of the invention was determined by their ability to inhibit the binding of ^125I eotaxin to CCR-3 L1.2 transfectant cells (see Ponath, P. D. et al., J. Exp. Med., Vol. 183, 2437–2448, (1996)).
The assay was performed in Costar 96-well polypropylene round bottom plates. Test compounds were dissolved in DMSO and then diluted with binding buffer (50 mM HEPES, 1 mM CaCl2, 5 mM MgCl2, 0.5% bovine serum albumin (BSA), 0.02% sodium azide, pH 7.24) such that the final DMSO concentration was 2%. 25 μl of the test solution or only buffer with DMSO (control samples) was added to each well, followed by the addition of 25 μl of ^125I-eotaxin ([…]) (NEX314, New England Nuclear, Boston, Mass.) and 1.5×10^5 of the CCR-3 L1.2 transfected cells in 25 μl binding buffer. The final reaction volume was 75 μl.
After incubating the reaction mixture for 1 hour at room temperature, the reaction was terminated by filtering the reaction mixture through polyethylenimine treated Packard Unifilter GF/C filter plate (Packard, Chicago, Ill.). The filters were washed four times with ice cold wash buffer containing 10 mm HEPES and 0.5M sodium chloride (pH 7.2) and dried at 65° C. for approximately 10 minutes. 25 μl/well of Microscint-20® scintillation fluid (Packard) was added and the radioactivity retained on the filters was determined by using the Packard TopCount®

As a reminder, the melting point is the temperature, or range, at which the solid turns liquid. In general, IC50 refers to the point on the concentration scale where inhibition reaches its midpoint. A higher IC50 goes with weaker potency in that assay.

Take `COc1ccc(-c2cnc(SCC(=O)N[C@@H]3CCC[C@H]3NCCc3ccc(Cl)cc3)nc2)cc1OC.Cl` (racemic): the melting point lay within 181.3 to 185.6 °C.

In turn, `CS(=O)(=O)c1ccc(C(=O)N[C@@H]2CCC[C@H]2NCCCc2ccc(Cl)cc2)cc1.Cl` (racemic) [Compound 2, (±)-trans-N-{2-[3-(4-Chlorophenyl)propylamino]cyclopentyl}-4-methanesulfonylbenzamide hydrochloride] gave a melting point of 192.3 to 196.8 °C. At CCR-3 receptor, this compound registered an IC50 of 6.8 µM.

The compound `COc1cc(NC(=O)N[C@@H]2CCC[C@H]2NCCCc2ccc(Cl)cc2)cc(OC)c1OC.Cl` (racemic) gave a melting point of 91.3 to 96 °C.

On to `COc1ccc(-c2cnc(SCC(=O)N[C@@H]3CCC[C@H]3NCCCc3ccc(Cl)cc3)nc2)cc1OC.Cl` (racemic) [Compound 1, (±)-trans-N-{2-[3-(4-Chlorophenyl)propylamino]cyclopentyl}-2-[5-(3,4-dimethoxyphenyl)pyrimidin-2-ylsulfanyl]acetamide hydrochloride], for which the melting point was in the range of 95.3 to 111.3 °C. The same compound gave an IC50 at CCR-3 receptor of 18.2 µM.

On to `COc1ccc(-c2cnc(SCC(=O)N[C@@H]3CCC[C@H]3N(C)CCCc3ccc(Cl)cc3)nc2)cc1OC.Cl` (racemic) [Compound 9, (±)-trans-N-(2-{[3-(4-Chlorophenyl)propyl]methylamino}-cyclopentyl)-2-[5-(3,4-dimethoxyphenyl)pyrimidin-2-ylsulfanyl]acetamide hydrochloride], for which the melting point was 91.5 to 98.5 °C. Moreover, on CCR-3 receptor, the IC50 came out at 5.6 µM.

On to `COc1cc(NC(=O)N[C@@H]2CCC[C@H]2NCCc2ccc(Cl)cc2)cc(OC)c1OC.Cl` (racemic), for which the melting point fell in the range of 97 to 101.5 °C.

Compound `CN(CCc1ccc(Cl)cc1)[C@@H]1CCC[C@H]1NC(=O)c1ccc(S(C)(=O)=O)cc1.Cl` (racemic) displayed a melting point of 179 to 179.3 °C.

Consider `COc1cc(NC(=O)N[C@@H]2CCC[C@H]2N(C)CCc2ccc(Cl)cc2)cc(OC)c1OC.Cl` (racemic) [Compound 6, (±)-trans-1-(2-{[2-(4-Chlorophenyl)ethyl]methylamino}cyclopentyl)-3-(3,4,5-trimethoxyphenyl)urea hydrochloride], for which the melting point was 97 to 105 °C. This compound also had an IC50 on CCR-3 receptor of 5.4 µM.

`CN(CCCc1ccc(Cl)cc1)[C@@H]1CCC[C@H]1NC(=O)c1ccc(S(C)(=O)=O)cc1.Cl` (racemic) gave a melting point of 109 to 113 °C.

For the compound `CS(=O)(=O)c1ccc(C(=O)N[C@@H]2CCC[C@H]2NCCc2ccc(Cl)cc2)cc1.Cl` (racemic), the melting point fell in the range of 221.8 to 222.7 °C.

In turn, `COc1ccc(-c2cnc(SCC(=O)N[C@@H]3CCC[C@H]3N(C)CCc3ccc(Cl)cc3)nc2)cc1OC.Cl` (racemic) showed a melting point of 123.7 to 125.3 °C.

Compound `COc1cc(NC(=O)N[C@@H]2CCC[C@H]2N(C)CCCc2ccc(Cl)cc2)cc(OC)c1OC.Cl` (racemic) showed a melting point of 75 to 82 °C.
